Where two headings read alike, the source gives them in different places.
Assays:
DENV [1] = test: microbe, parasite or virus in culture; type: cell-based, Dengue virus (DENV-2 16681 strain); conditions: for EC50: read-out: Replication EC50
DENV [2] = test: microbe, parasite or virus in culture; type: cell-based, Dengue virus (DENV-2 16681 strain)
DENV [3] = test: microbe, parasite or virus in culture; type: cell-based, Dengue virus (DENV-2 16681 strain); remark: listed apart in the source
YFV = test: microbe, parasite or virus in culture; type: cell-based, Yellow fever virus (YFV-17D); conditions: read-out: EC50 against YFV replication
[4] = not given; remark: listed apart in the source
[5] = test system: pBR322 supercoiled plasmid DNA; type: biochemical, Escherichia coli; also: test concentration or dose not given here
Huh7 cells = conditions: human
in vitro = conditions: human
[6] = Dengue virus, 72 h, read-out: Entry + Replicaion EC50
[7] = Dengue virus, Huh-7, 72 h, read-out: Entry + Replication EC50
[8] = Dengue virus, Huh-7, 72 h, read-out: Infectivity EC50
[9] = Dengue virus, Huh-7, read-out: Infectivity EC50

O=C(O)/C=C/c1ccc(O)c(O)c1 [Caffeic acid, caffeic acid]
EC50 (DENV [1]; Dengue virus, Huh-7, 72 h): 35.9 ± 1.88 µM | EC50 (DENV [2]; [6]): > 4.5 µg/mL | EC50 (DENV [2]; [7]): > 100 µM | EC50 (DENV [3]; [8]): 51.5 ± 1.19 µM | EC50 (DENV [3]; [9]): 4.63 µg/mL | EC50 (YFV; Yellow fever virus, 72 h): > 100 µM | DPPH scavenging activity IC50: 6.37 µg/mL | ABTS radical scavenging activity IC50 [4]: 1.28 µg/mL | inhibition of DNA strand breakage [5]: 98.98%

O=C(O)/C=C/c1ccc(O)cc1 [Coumaric acid, coumaric acid]
EC50 (DENV [1]; Dengue virus, Huh-7, 72 h): > 100 µM | EC50 (DENV [1]; Dengue virus): > 16.4 µg/mL | EC50 (DENV [2]; [6]): 7.87 µg/mL | EC50 (DENV [2]; [7]): 48 ± 2.43 µM | EC50 (DENV [3]; [8]): 91.64 ± 0.4 µM | EC50 (DENV [3]; [9]): 15 µg/mL | EC50 (YFV; Yellow fever virus, 72 h): 154 ± 29.8 µM | DPPH scavenging activity IC50: 21.17 µg/mL | ABTS radical scavenging activity IC50 [4]: 4.00 µg/mL | inhibition of DNA strand breakage [5]: 89.85%

COc1cc(/C=C/C(=O)O)ccc1O [Ferulic acid, ferulic acid]
Replication EC50 (DENV [1]): > 19.41 µg/mL | EC50 (DENV [1]): > 100 µM | Entry + Replicaion EC50 (DENV [2]): > 19.41 µg/mL | EC50 (DENV [2]; read-out: Entry + Replication EC50): > 100 µM | Infectivity EC50 (DENV [3]): > 19.41 µg/mL | EC50 (DENV [3]; read-out: Infectivity EC50): > 100 µM | EC50 (YFV): > 100 µM | DPPH scavenging activity IC50: 10.14 µg/mL | ABTS radical scavenging activity IC50 [4]: 2.51 µg/mL | inhibition of DNA strand breakage [5]: 94.17%

O=c1c(O)c(-c2ccc(O)cc2)oc2cc(O)cc(O)c12 [Kaempferol, kaempferol]
EC50 (DENV [1]; Dengue virus, Huh-7, 72 h): 31.5 ± 6.39 µM | EC50 (DENV [2]; [6]): 2.53 µg/mL | EC50 (DENV [2]; [7]): 35.5 ± 4.09 µM | EC50 (DENV [3]; [8]): 3.55 ± 0.07 µM | EC50 (DENV [3]; [9]): 0.25 µg/mL | EC50 (YFV; Yellow fever virus, 72 h): > 50 µM | DPPH scavenging activity IC50: 7.40 µg/mL | ABTS radical scavenging activity IC50 [4]: 1.84 µg/mL | inhibition of DNA strand breakage [5]: 97.34% | CC50 (Huh7 cells): > 6.466 µg/mL | CC50 (in vitro): 90.4 µM

O=c1cc(-c2ccc(O)c(O)c2)oc2cc(O)cc(O)c12 [Luteolin, luteolin]
EC50 (DENV [1]; Dengue virus, Huh-7, 72 h): 107 ± 1.82 µM | EC50 (DENV [1]; Dengue virus): 30.7 µg/mL | EC50 (DENV [2]; [6]): 20.8 µg/mL | EC50 (DENV [2]; [7]): 72.7 ± 7.76 µM | EC50 (DENV [3]; [8]): > 100 µM | EC50 (DENV [3]; [9]): > 28.6 µg/mL | EC50 (YFV; Yellow fever virus, 72 h): > 100 µM | DPPH scavenging activity IC50: 9.48 µg/mL | ABTS radical scavenging activity IC50 [4]: 2.20 µg/mL | inhibition of DNA strand breakage [5]: 95.87%

O=C1C[C@@H](c2ccc(O)cc2)Oc2cc(O)cc(O)c21 [Naringenin, naringenin]
EC50 (DENV [1]; Dengue virus, Huh-7, 72 h): > 100 µM | EC50 (DENV [1]; Dengue virus): > 27.2 µg/mL | EC50 (DENV [2]; [6]): 28.5 µg/mL | EC50 (DENV [2]; [7]): > 100 µM | EC50 (DENV [3]; [8]): > 100 µM | EC50 (DENV [3]; [9]): > 27.2 µg/mL | EC50 (YFV; Yellow fever virus, 72 h): 102 ± 34.4 µM | DPPH scavenging activity IC50: 17.45 µg/mL | ABTS radical scavenging activity IC50 [4]: 3.37 µg/mL | inhibition of DNA strand breakage [5]: 92.03%

O=c1c(O)c(-c2ccc(O)c(O)c2)oc2cc(O)cc(O)c12 [Quercetin, quercetin]
EC50 (DENV [1]; Dengue virus, Huh-7, 72 h): 58.5 ± 7.08 µM | EC50 (DENV [1]; Dengue virus): 17.7 µg/mL | EC50 (DENV [2]; [6]): 32.1 µg/mL | EC50 (DENV [2]; [7]): 109 ± 17.6 µM | EC50 (DENV [3]; [8]): 104 ± 1.49 µM | EC50 (DENV [3]; [9]): 31.4 µg/mL | EC50 (YFV; Yellow fever virus, 72 h): > 100 µM | DPPH scavenging activity IC50: 8.05 µg/mL | ABTS radical scavenging activity IC50 [4]: 1.93 µg/mL | inhibition of DNA strand breakage [5]: 96.52%

O=C(/C=C/c1ccc(O)c(O)c1)O[C@H](Cc1ccc(O)c(O)c1)C(=O)O [Rosmarinic acid, rosmarinic acid]
EC50 (DENV [1]; Dengue virus, Huh-7, 72 h): 76.2 ± 7.92 µM | EC50 (DENV [1]; Dengue virus): 27.4 µg/mL | EC50 (DENV [2]; [6]): 25.6 µg/mL | EC50 (DENV [2]; [7]): 70.9 ± 9.1 µM | EC50 (DENV [3]; [8]): 37.1 ± 0.94 µM | EC50 (DENV [3]; [9]): 13.4 µg/mL | EC50 (YFV; Yellow fever virus, 72 h): 98 ± 21 µM | DPPH scavenging activity IC50: 12.28 µg/mL | ABTS radical scavenging activity IC50 [4]: 3.05 µg/mL | inhibition of DNA strand breakage [5]: 93.12% | CC50 (in vitro): > 500 µM

C[C@@H]1O[C@@H](OC[C@H]2O[C@@H](Oc3c(-c4ccc(O)c(O)c4)oc4cc(O)cc(O)c4c3=O)[C@H](O)[C@@H](O)[C@@H]2O)[C@H](O)[C@H](O)[C@H]1O [Rutin, rutin]
EC50 (DENV [1]; Dengue virus, Huh-7, 72 h): > 100 µM | EC50 (DENV [1]; Dengue virus): > 61 µg/mL | EC50 (DENV [2]; [6]): > 61 µg/mL | EC50 (DENV [2]; [7]): > 100 µM | EC50 (DENV [3]; [8]): > 100 µM | EC50 (DENV [3]; [9]): > 61 µg/mL | EC50 (YFV; Yellow fever virus, 72 h): > 100 µM | DPPH scavenging activity IC50: 21.86 µg/mL | ABTS radical scavenging activity IC50 [4]: 4.54 µg/mL | inhibition of DNA strand breakage [5]: 88.60% | CC50 (in vitro): > 500 µM

Source: article PMC12466706 (Antioxidants, 2025)
